We go through 41 molecules from patent publication US11292792B2, “Tricyclic CRBN ligands and uses thereof” (Kymera Therapeutics, Inc., priority 2018, dated 2022).

Some results are limits rather than exact numbers.

Chain of His-tagged CRBN-DDB1 complex (Q96SW2 whole entry): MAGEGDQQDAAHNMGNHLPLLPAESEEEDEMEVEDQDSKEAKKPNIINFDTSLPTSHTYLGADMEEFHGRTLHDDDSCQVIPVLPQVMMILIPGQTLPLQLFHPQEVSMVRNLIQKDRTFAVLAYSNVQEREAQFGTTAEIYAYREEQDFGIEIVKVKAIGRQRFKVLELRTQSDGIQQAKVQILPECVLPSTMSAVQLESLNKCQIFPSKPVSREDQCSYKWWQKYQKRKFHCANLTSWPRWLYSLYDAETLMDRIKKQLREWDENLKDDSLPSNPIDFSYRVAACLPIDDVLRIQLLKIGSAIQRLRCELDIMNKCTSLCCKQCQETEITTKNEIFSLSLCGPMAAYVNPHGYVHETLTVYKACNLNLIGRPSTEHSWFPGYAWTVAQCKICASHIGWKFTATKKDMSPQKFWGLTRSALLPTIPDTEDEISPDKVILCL
Chain of His-tagged CRBN-DDB1 complex (Q16531 whole entry partner): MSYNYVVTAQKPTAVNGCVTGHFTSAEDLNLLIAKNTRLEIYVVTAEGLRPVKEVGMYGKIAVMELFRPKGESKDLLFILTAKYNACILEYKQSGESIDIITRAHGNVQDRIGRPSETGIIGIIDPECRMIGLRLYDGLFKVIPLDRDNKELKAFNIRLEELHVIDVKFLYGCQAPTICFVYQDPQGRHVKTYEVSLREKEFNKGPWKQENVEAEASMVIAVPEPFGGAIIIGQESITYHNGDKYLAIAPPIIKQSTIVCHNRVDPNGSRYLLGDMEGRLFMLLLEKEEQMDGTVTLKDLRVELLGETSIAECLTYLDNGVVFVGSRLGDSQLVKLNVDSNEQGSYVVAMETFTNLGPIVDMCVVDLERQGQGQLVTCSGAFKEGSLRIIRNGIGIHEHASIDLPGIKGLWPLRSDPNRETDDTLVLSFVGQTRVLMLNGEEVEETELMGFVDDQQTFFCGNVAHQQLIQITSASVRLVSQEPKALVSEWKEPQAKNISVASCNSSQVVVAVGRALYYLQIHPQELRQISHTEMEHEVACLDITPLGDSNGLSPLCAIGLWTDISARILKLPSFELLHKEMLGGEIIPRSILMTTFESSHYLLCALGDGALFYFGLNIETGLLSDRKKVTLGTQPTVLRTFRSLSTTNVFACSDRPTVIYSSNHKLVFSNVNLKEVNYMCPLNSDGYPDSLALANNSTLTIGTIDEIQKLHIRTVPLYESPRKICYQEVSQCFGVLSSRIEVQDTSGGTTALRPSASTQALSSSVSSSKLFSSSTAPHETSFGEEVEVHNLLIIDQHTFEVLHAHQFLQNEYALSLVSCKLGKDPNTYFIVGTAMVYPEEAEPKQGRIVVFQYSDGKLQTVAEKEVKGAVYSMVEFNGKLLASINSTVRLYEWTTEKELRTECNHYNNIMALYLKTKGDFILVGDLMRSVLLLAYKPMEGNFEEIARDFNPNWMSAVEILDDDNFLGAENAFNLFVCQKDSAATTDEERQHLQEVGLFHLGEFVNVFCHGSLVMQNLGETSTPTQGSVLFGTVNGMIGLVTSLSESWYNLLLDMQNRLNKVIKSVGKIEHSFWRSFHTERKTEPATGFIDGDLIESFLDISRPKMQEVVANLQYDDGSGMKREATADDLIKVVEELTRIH

In the experiment the target is His-tagged CRBN-DDB1 complex (Homo sapiens (Human), UniProt Q96SW2). The experiment can be described thus: Time-resolved fluorescence resonance energy transfer (TR-FRET) assay, displacement of Cy5-labeled thalidomide. As to conditions: read-out: CRBN HTRF IC50. In kind it is binding. The protocol:
Equal volumes of His-tagged CRBN-DDB1 complex (56 nM) was mixed with Eu-cryptate labeled Anti-6HIS-monoclonal antibody (50× dilution from the commercial stock solution, Vender: Cisbio, Cat. #61HI2KLA) in a final buffer containing 20 mM HEPES pH 7.0, 150 mM NaCl, 0.005% Tween-20. […] The mixture were incubated at room temperature for 1 hour. FRET signals were measured on an EnVision plate reader (Perkin Elmer) by exciting at 340 nm and recording emission at both 615 nm as no FRET control and 665 nm as the FRET signals with a 60 microsecond delay. FRET efficiency was calculated as the ratio of fluorescent signals at […]. Quantitative loss of FRET efficiency as a function of compound concentrations was fitted by a four-parameter Logistic Function using GraphPad Prism 7.0 and the IC50 values were reported for each compound.
The compound numbers correspond to the compound numbers in Table 1.
With `O=C1CCC(n2c3cc(Br)ccc3c3cccnc32)C(=O)N1` (centres unmarked) [I-102, 3-3-(7-Bromopyrido[2,3-b]indol-9-yl)piperidine-2,6-dione], the IC50 was 10 to 30 µM.

`O=C1CCC(n2c3ccccc3c3ccc(O)nc32)C(=O)N1` (centres unmarked) [I-83, 3-(2-hydroxy-9H-pyrido[2,3-b]indol-9-yl)piperidine-2,6-dione]: the IC50 was less than 10 µM.

In the case of `O=C1CCC(n2c3ccccc3c3cnccc32)C(=O)N1` (centres unmarked) [I-43], the IC50 lay within 30 to 100 µM.

Regarding `CN(CCCOCCCc1ccc2c(c1)c1cccnc1n2C1CCC(=O)NC1=O)C(=O)OC(C)(C)C` (centres unmarked) [I-44], the IC50 was less than 10 µM.

As to `O=C1CCC(n2c3cc(Cl)ccc3c3cccnc32)C(=O)N1` (centres unmarked) [I-106, 3-(7-chloro-9H-pyrido[2,3-b]indol-9-yl)piperidine-2,6-dione], the IC50 was 10 to 30 µM.

As for `CC(C)(C)OC(=O)NCCOCCOC(=O)NCc1ccc2c(c1)c1cccnc1n2C1CCC(=O)NC1=O` (centres unmarked) [I-38, 2-(2-((tert-butoxycarbonyl)amino)ethoxy)ethyl ((9-(2,6-dioxopiperidin-3-yl)-9H-pyrido[2,3-b]indol-6-yl)methyl)carbamate], the IC50 is less than 10 µM.

Consider `O=C1CCC(n2c3ccncc3c3cccnc32)C(=O)N1` (centres unmarked) [I-56, 3-(9H-pyrrolo[2,3-b:4,5-c′]dipyridin-9-yl)piperidine-2,6-dione], for which the IC50 was in the range of 10 to 30 µM.

In the case of `CN(C)c1ccc2c(c1)c1cccnc1n2C1CCC(=O)NC1=O` (centres unmarked) [I-28, 3-(6-(Dimethylamino)-9H-pyrido[2,3-b]indol-9-yl)piperidine-2,6-dione], the IC50 was less than 10 µM.

On to `CC(C)(C)OC(=O)NCCOCCOCCCc1ccc2c(c1)c1cccnc1n2C1CCC(=O)NC1=O` (centres unmarked) [I-62], for which the IC50 is less than 10 µM.

Consider `O=C1CCC(n2c3ccccc3c3cccnc32)C(=O)N1` (centres unmarked) [I-2, 3-(9H-pyrido[2,3-b]indol-9-yl)piperidine-2,6-dione], for which the half-maximal inhibitory concentration (IC50) was less than 10 µM.

Turning to `O=C1CCC(n2c3c(c4cccnc42)CCCC3)C(=O)N1` (centres unmarked) [I-70], the IC50 lay within 10 to 30 µM.

For `O=C1CCC(n2c3ccc(Br)cc3c3ccc(F)nc32)C(=O)N1` (centres unmarked) [I-92, 3-(6-bromo-2-fluoro-9H-pyrido[2,3-b]indol-9-yl)piperidine-2,6-dione], the IC50 was less than 10 µM.

Turning to `Cc1ccc2c3ccccc3n(C3CCC(=O)NC3=O)c2n1` (centres unmarked) [I-86, 3-(2-methyl-9H-pyrido[2,3-b]indol-9-yl)piperidine-2,6-dione], the IC50 was less than 10 µM.

Consider `O=C1CCC(n2c3ccccc3c3c(Br)ccnc32)C(=O)N1` (centres unmarked) [I-31], for which the IC50 is less than 10 µM.

As to `O=C1CCC(n2c3ccccc3c3ccnc(O)c32)C(=O)N1` (centres unmarked) [I-105], the IC50 lay within 10 to 30 µM.

For the molecule `N#Cc1ccc2c(c1)c1cccnc1n2C1CCC(=O)NC1=O` (centres unmarked) [I-32], the IC50 was 10 to 30 µM.

Turning to `O=C1CCC(n2c3ccccc3c3ccncc32)C(=O)N1` (centres unmarked) [I-42], the IC50 is greater than 100 µM.

Take `O=C1CCC(n2c3cccc(C#CCOCCOCCOCc4ccccc4)c3c3cccnc32)C(=O)N1` (centres unmarked) [I-52]: the IC50 was less than 10 µM.

For the molecule `CC(C)(C)OC(=O)NCCOCCOCC#Cc1cccc2c1c1cccnc1n2C1CCC(=O)NC1=O` (centres unmarked) [I-61], the IC50 was less than 10 µM.

In the case of `O=C1CCC(n2c3cc(CCCOCCOCCO)ccc3c3cccnc32)C(=O)N1` (centres unmarked) [I-53], the IC50 is 10 to 30 µM.

For the molecule `N#Cc1ccnc2c1c1ccccc1n2C1CCC(=O)NC1=O` (centres unmarked) [I-76, 9-(2,6-dioxopiperidin-3-yl)-9H-pyrido[2,3-b]indole-4-carbonitrile], the IC50 is less than 10 µM.

With `CC(C)(C)OC(=O)NCCOCCOCCCc1ccnc2c1c1ccccc1n2C1CCC(=O)NC1=O` (centres unmarked) [I-57], the IC50 is less than 10 µM.

As to `CC(C)(C)OC(=O)NCCOCCOCCNc1ccc2c(c1)c1cccnc1n2C1CCC(=O)NC1=O` (centres unmarked) [I-35, tert-butyl (2-(2-(2-((9-(2,6-dioxopiperidin-3-yl)-9H-pyrido[2,3-b]indol-6-yl)amino)ethoxy)ethoxy)ethyl)carbamate], the IC50 was less than 10 µM.

As for `Nc1ccc2c3ccccc3n(C3CCC(=O)NC3=O)c2n1` (centres unmarked) [I-78], the IC50 is less than 10 µM.

`CC(C)(C)OC(=O)NCCOCCOCC#Cc1ccc2c3ccccc3n(C3CCC(=O)NC3=O)c2n1` (centres unmarked) [I-74]: the IC50 lay in the range of 10 to 30 µM.

`O=C1CCC(n2c3cnccc3c3cccnc32)C(=O)N1` (centres unmarked) [I-69, 3-(9H-pyrrolo[2,3-b:5,4-c′]dipyridin-9-yl)piperidine-2,6-dione]: the IC50 was greater than 100 µM.

As for `CNc1ccc2c3ccccc3n(C3CCC(=O)NC3=O)c2n1` (centres unmarked) [I-79, 3-(2-(methylamino)-9H-pyrido[2,3-b]indol-9-yl)piperidine-2,6-dione], the IC50 is less than 10 µM.

For `CC(C)(C)OC(=O)N1CCN(CCc2ccc3c(c2)c2cccnc2n3C2CCC(=O)NC2=O)CC1` (centres unmarked) [I-64, tert-butyl 4-(2-(9-(2,6-dioxopiperidin-3-yl)-9H-pyrido[2,3-b]indol-6-yl)ethyl)piperazine-1-carboxylate], the IC50 was less than 10 µM.

Take `Nc1cnc2c(c1)c1ccccc1n2C1CCC(=O)NC1=O` (centres unmarked) [I-39, 3-(3-amino-9H-pyrido[2,3-b]indol-9-yl)piperidine-2,6-dione]: the IC50 was less than 10 µM.

Turning to `O=C1CCC(n2c3ccc(NCCOCCOCCOCc4ccccc4)cc3c3cccnc32)C(=O)N1` (centres unmarked) [I-50], the IC50 was less than 10 µM.

As to `NCCOCCOCCCc1cnc2c(c1)c1ccccc1n2C1CCC(=O)NC1=O` (centres unmarked) [I-59, 3-(3-(3-(2-(2-aminoethoxy)ethoxy)propyl)-9H-pyrido[2,3-b]indol-9-yl)piperidine-2,6-dione], the IC50 is less than 10 µM.

For `O=C1CCC(n2c3ccccc3c3ccc(Cl)nc32)C(=O)N1` (centres unmarked) [I-75], the IC50 is less than 10 µM.

With `O=C1CCC(n2c3ccc(CCCOCCOCCO)cc3c3cccnc32)C(=O)N1` (centres unmarked) [I-46], the IC50 is less than 10 µM.

Take `CN(C)c1ccc2c3ccccc3n(C3CCC(=O)NC3=O)c2n1` (centres unmarked) [I-80, 3-(2-(dimethylamino)-9H-pyrido[2,3-b]indol-9-yl)piperidine-2,6-dione]: the IC50 lay in the range of 10 to 30 µM.

For the molecule `O=C1CCC(n2c3ccccc3c3ncsc32)C(=O)N1` (centres unmarked) [I-87], the IC50 is less than 10 µM.

Consider `O=C1CCC(n2c3ccccc3c3ccc(C(F)(F)F)nc32)C(=O)N1` (centres unmarked) [I-85], for which the IC50 was in the range of 10 to 30 µM.

With `O=C1CCC(n2c3ncccc3c3cccnc32)C(=O)N1` (centres unmarked) [I-3, 3-(9H-pyrrolo[2,3-b:5,4-b′]dipyridin-9-yl)piperidine-2,6-dione], the IC50 fell in the range of 30 to 100 µM.

Regarding `O=C1CCC(n2ccn3c4ccccc4nc23)C(=O)N1` (centres unmarked) [I-94], the IC50 is 30 to 100 µM.

Take `O=C1CCC(n2c3ccccc3n3ccnc23)C(=O)N1` (centres unmarked) [I-99]: the IC50 is 30 to 100 µM.

Take `O=C1CCC(n2c3ccccc3c3cc(CCCOCCOCCO)cnc32)C(=O)N1` (centres unmarked) [I-54, 3-(3-(3-(2-(2-hydroxyethoxy)ethoxy)propyl)-9H-pyrido[2,3-b]indol-9-yl)piperidine-2,6-dione]: the IC50 is 10 to 30 µM.

For the molecule `O=C1CCC(n2c3ccccc3c3c(Cl)csc32)C(=O)N1` (centres unmarked) [I-93, 3-(3-chloro-8H-thieno[2,3-b]indol-8-yl)piperidine-2,6-dione], the IC50 was less than 10 µM.
